Measurements: PMC11486130, “Structure-guided discovery of novel dUTPase inhibitors with anti-Nocardia activity by computational design” (Journal of Enzyme Inhibition and Medicinal Chemistry, 2024)
≈ marks a conversion by molar mass, not a printed value. Read-outs that look alike come from different tables or passages of the source.

What was measured:
[1] = system: N. seriolae strain JCM3360; assay: anti-Nocardia activity, microplate alamar blue assay (MABA); assay type: cell-based; details: two days at 25 °C; for MIC: 48 h
Experimental: (§1) The MABA method was used to determine the anti-Nocardia activity of compounds according to reported method[34] with modification. N. seriolae strain JCM3360, and N. salmonicida strain JCM4826 were gifted from Prof. Nien, Chung-Yi (National Central University, Taoyuan City, Taiwan), and cultured in M-196 medium (0.4% yeast extract; 1% malt extract; 0.4% dextrose) at 25 °C. Two strains were inoculated into 96-well plates at a concentration of ×10^6 CFU/mL and cultured in the medium, then different concentrations of compounds were added. After two days of incubation at 25 °C, the mixture of 20 μL 10× alamar blue and 50 μL 5% Tween-80 were added to observe the colour change. Minimum inhibitory concentration (MIC) is defined as the minimum compound concentration of the well varying from blue to pink.

[2] = system: N. salmonicida strain JCM4826; assay: as above; assay type: cell-based; details: two days at 25 °C; for MIC: 48 h
Experimental: as §1

[3] = target: NsdUTPase (Nocardia seriolae, UniProt A0ABF7PKI9); assay: NsdUTPase activity assay (PPi Light inorganic pyrophosphate assay kit); assay type: biochemical; details: for activity improvement: NsdUTPase IC50 compared with F0414
Experimental: The in vitro catalytic activity of NsdUTPase was detected by a PPi Light inorganic pyrophosphate assay kit following manufactory’s manual. […] After 120 min of incubation at room temperature, the luminescence intensity of the reaction was measured by a microplate luminometer at 560 nm.
IC50 was determined using GraphPad Prism software 9 (GraphPad Software, San Diego, CA). All experiments were performed in triplicate, and values (±standard deviations [SD]) are shown. Significant differences were determined using Student’s t-test. *p < 0.05 (considered significant compared with control group); **p < 0.01 (considered highly significant); ***p < 0.001 (considered extremely significant).

[4] = target: T1, NsdUTPase WT (Nocardia seriolae, UniProt A0ABF7PKI9); assay: Kd to WT NsdUTPase; assay type: binding, N. seriolae
T1 sequence (A0ABF7PKI9 1-166): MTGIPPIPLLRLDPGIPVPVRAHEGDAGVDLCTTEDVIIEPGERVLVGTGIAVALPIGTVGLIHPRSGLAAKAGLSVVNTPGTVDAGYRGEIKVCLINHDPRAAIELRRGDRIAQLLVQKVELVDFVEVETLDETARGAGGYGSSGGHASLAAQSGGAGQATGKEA

[5] = Cytotoxicity, CCK-8 assay; assay type: cell-based; details: concentration 30 µM (about 10.0 mg/L), read-out: cell viability
Experimental: The cytotoxicity of compounds 4b and 12b was determined by CCK-8 assay. A549 and Marc cells were cultured for the test. Concentrations of compounds varied from 0.03 to 30 µM. Meanwhile, 1% DMSO was used as a negative control. After incubation for 24 h, WST-8 was added. The experimental method referred to the kit instructions. All the experiments were repeated three times.

[6] = in vitro enzyme inhibitory activity, read-out: IC50 against NsdUTPase
[7] = African green monkey, Marc cells

Compound	IC50 [3, 6] [µM]	MIC [1] [µg/mL]	MIC [2] [µg/mL]	also measured
1-(Cyclopropylmethyl)-2-(4-phenoxyphenyl)-5-(trifluoromethyl)-1H-benzo[d]imidazole [12f]	> 20	–	–	MIC N. seriolae [1]: 16 µg/mL; MIC N. salmonicida [2]: 8 µg/mL
1-Allyl-6-fluoro-5-methyl-2-(6-phenoxypyridin-3-yl)-1H-benzo[d]imidazole [12i]	7.84	–	–	MIC N. seriolae [1]: 4 µg/mL; MIC N. salmonicida [2]: 4 µg/mL
C=CCn1c(/C=C/c2ccccc2)nc2cc(C(F)(F)F)ccc21 [4b, (E)-1-Allyl-2-styryl-5-(trifluoromethyl)-1H-benzo[d]imidazole]	–	1 (≈ 3.05 µM)	0.5 (≈ 1.52 µM)	Kd [4]: 10.3 µM; viability at 24 h, 30 µM [5, 7]: > 70%; viability at 24 h, 30 µM ([5]; human, A549 cells): > 70%; IC50 [3]: 0.99 µM; activity improvement [3]: more than 20 fold
C=CCn1c(/C=C/c2ccccc2)nc2c(C)cccc21 [4d, (E)-1-Allyl-4-methyl-2-styryl-1H-benzo[d]imidazole]	> 20	16 (≈ 58.3 µM)	16 (≈ 58.3 µM)	–
C=CCn1c(/C=C/c2ccccc2)nc2cc(C#N)ccc21 [4e, (E)-1-Allyl-2-styryl-1H-benzo[d]imidazole-5-carbonitrile]	> 20	> 50	16 (≈ 56.1 µM)	–
C=CCn1c(/C=C/c2ccc(N(C)C)cc2)nc2ccccc21 [4g, (E)-4-(2-(1-Allyl-1H-benzo[d]imidazol-2-yl)vinyl)-N,N-dimethylaniline]	2.98	> 50	16 (≈ 52.7 µM)	–
C=CCn1c(/C=C/c2ccccc2)nc2cc(C(=O)c3ccccc3)ccc21 [4h, (E)-(1-Allyl-2-styryl-1H-benzo[d]imidazol-5-yl)(phenyl)methanone]	9.62	8 (≈ 22 µM)	8 (≈ 22 µM)	–
C=CCn1c(/C=C/c2ccccc2OC)nc2cc(C(=O)c3ccccc3)ccc21 [4i, (E)-(1-Allyl-2-(2-methoxystyryl)-1H-benzo[d]imidazol-5-yl)(phenyl)methanone]	7.54	8 (≈ 20.3 µM)	4 (≈ 10.1 µM)	–
C=CCn1c(-c2ccc(Oc3ccccc3)cc2)nc2ccccc21 [8a, 1-Allyl-2-(4-phenoxyphenyl)-1H-benzo[d]imidazole]	2.61	4 (≈ 12.3 µM)	4 (≈ 12.3 µM)	–
C=CCn1c(-c2ccc(-c3ccccc3)cc2)nc2ccccc21 [8b, 2-([1,1′-Biphenyl]-4-yl)-1-allyl-1H-benzo[d]imidazole]	–	4 (≈ 12.9 µM)	4 (≈ 12.9 µM)	–
C=CCn1c(/C(C)=C/c2ccccc2)nc2ccccc21 [8c, (E)-1-Allyl-2-(1-phenylprop-1-en-2-yl)-1H-benzo[d]imidazole]	> 20	8 (≈ 29.2 µM)	4 (≈ 14.6 µM)	–
C=CCn1c(-c2cccc(Oc3ccccc3)c2)nc2ccccc21 [8d, 1-Allyl-2-(3-phenoxyphenyl)-1H-benzo[d]imidazole]	15.7	> 50	32 (≈ 98 µM)	–
C=CCn1c(-c2ccc3ccccc3c2)nc2ccccc21 [8e, 1-Allyl-2-(naphthalen-2-yl)-1H-benzo[d]imidazole]	10.5	4 (≈ 14.1 µM)	4 (≈ 14.1 µM)	–
C=CCn1c(-c2ccc(Oc3ccccc3)cc2)nc2cc(C(F)(F)F)ccc21 [12a, 1-Allyl-2-(4-phenoxyphenyl)-5-(trifluoromethyl)-1H-benzo[d]imidazole]	8.36	> 50	16 (≈ 40.6 µM)	–
C=CCn1c(-c2ccc(Oc3ccccc3)cc2)nc2cc(C)ccc21 [12b, 1-Allyl-5-methyl-2-(4-phenoxyphenyl)-1H-benzo[d]imidazole]	–	2 (≈ 5.87 µM)	1 (≈ 2.94 µM)	Kd [4]: 7.49 µM; viability at 24 h, 30 µM [5, 7]: > 70%; viability at 24 h, 30 µM ([5]; human, A549 cells): > 70%; IC50 [3]: 0.7 µM; activity improvement [3]: more than 20 fold
C=CCn1c(-c2ccc(Oc3ccccc3)cc2)nc2cc(C(=O)c3ccccc3)ccc21 [12c, (1-Allyl-2-(4-phenoxyphenyl)-1H-benzo[d]imidazol-5-yl)(phenyl)methanone]	15.4	16 (≈ 37.2 µM)	8 (≈ 18.6 µM)	–
C=CCn1c(-c2ccc(Oc3ccccc3)cc2)nc2cc(C)c(C)cc21 [12d, 1-Allyl-5,6-dimethyl-2-(4-phenoxyphenyl)-1H-benzo[d]imidazole]	3.71	8 (≈ 22.6 µM)	4 (≈ 11.3 µM)	–
C#CCn1c(-c2ccc(Oc3ccccc3)cc2)nc2cc(C(F)(F)F)ccc21 [12e, 2-(4-Phenoxyphenyl)-1-(prop-2-yn-1-yl)-5-(trifluoromethyl)-1H-benzo[d]imidazole]	14.8	32 (≈ 81.6 µM)	16 (≈ 40.8 µM)	–
C=CCn1c(-c2ccc(Oc3cccnc3)cc2)nc2cc(C(F)(F)F)ccc21 [12g, 1-Allyl-2-(4-(pyridin-3-yloxy)phenyl)-5-(trifluoromethyl)-1H-benzo[d]imidazole]	> 20	> 50	32 (≈ 80.9 µM)	–
C=CCn1c(-c2ccc(Oc3ccccc3)nc2)nc2cc(C(F)(F)F)ccc21 [12h, 1-Allyl-2-(6-phenoxypyridin-3-yl)-5-(trifluoromethyl)-1H-benzo[d]imidazole]	> 20	> 50	32 (≈ 80.9 µM)	–
C=CCn1c(/C=C/c2ccccc2)nc2ccccc21 [F0414, (E)-1-Allyl-2-styryl-1H-benzo[d]imidazole, reference compound]	> 20	8 (≈ 30.7 µM)	2 (≈ 7.68 µM)	–
CS(=O)(=O)c1ccc([C@@H](O)[C@@H](CF)NC(=O)C(Cl)Cl)cc1 [Florfenicol, reference compound]	–	4 (≈ 11.2 µM)	16 (≈ 44.7 µM)	–
CN(C)[C@@H]1C(O)=C(C(N)=O)C(=O)[C@@]2(O)C(O)=C3C(=O)c4c(O)cccc4[C@@](C)(O)[C@H]3[C@H](O)[C@@H]12 [Oxytetracycline, reference compound]	–	1 (≈ 2.17 µM)	4 (≈ 8.69 µM)	–
COc1cc(NS(=O)(=O)c2ccc(N)cc2)nc(OC)n1 [Sulfadimethoxine, reference compound]	–	> 50	12.5 (≈ 40.3 µM)	MIC N. seriolae [1]: >50 µg/mL
Cc1ccnc(NS(=O)(=O)c2ccc(N)cc2)n1 [Sulfamerazin, reference compound]	–	–	–	MIC N. seriolae [1]: >50 µg/mL; MIC N. seriolae ([1]; listed as sulfamerazin): > 50 µg/mL; MIC N. salmonicida [2]: >50 µg/mL
(E)-1-Allyl-2-styryl-1H-benzo[d]imidazol-5-yl acetate [4f]	18.3	–	–	MIC N. seriolae [1]: >50 µg/mL; MIC N. salmonicida [2]: 32 µg/mL
(E)-1-Allyl-2-styryl-1H-benzo[d]imidazole [4a]	2.65	–	–	MIC N. seriolae [1]: 4 µg/mL; MIC N. salmonicida [2]: 2 µg/mL
(E)-1-Allyl-2-styryl-1H-benzo[d]imidazole [4c]	3.78	–	–	MIC N. seriolae [1]: >50 µg/mL; MIC N. salmonicida [2]: 16 µg/mL
